From patent US5527781A, “4-O-(aminoglycosyl)- or 4,6-di-O-(aminoglycosyl)-2,5-dideoxy-5,5-difluorostreptamine derivatives” (Zaidan Hojin Biseibutsu Kagaku Kenkyu Kai, priority 1990, dated 1996)
Converted amounts (≈) assume the structure as drawn.

Columns and labels:
in vivo = details: mouse, iv
Source text: Further, in order to estimate acute toxicity of the compound of the general formula (I) according to this invention, some examples of the compounds of this invention were independently dissolved in water to prepare aqueous solutions (as adjusted to pH 7 by addition of hydrochloric acid). […] The tested compounds of this invention are expressed by the same abbreviations as in Table 1. […] The comparative compounds as tested are also expressed by the same abbreviations as in Table 1.

[1] = system: Escherichia coli K-12 LA 290 R55; test: microbe, parasite or virus in culture; assay type: cell-based; details: K12LA290R55; Escherichia coli K-12 LA 290 R55; resistance mechanism ANT(2"); Mueller-Hinton agar, 37° C
[2] = system: Staphylococcus aureus 209P; test: MIC, standard serial dilution method; assay type: cell-based; details: Mueller-Hinton agar, 37° C
[3] = system: Klebsiella pneumoniae 22#3038; test: MIC, standard serial dilution method; assay type: cell-based; details: resistance mechanism APH(3')-II, ANT(2"), Mueller-Hinton agar, 37° C
[4] = system: Staphylococcus aureus Ap01; test: MIC, standard serial dilution method; assay type: cell-based; details: resistance mechanism ANT(4'), Mueller-Hinton agar, 37° C
Escherichia coli K-12 R5 = test: microbe, parasite or virus in culture; assay type: cell-based; details: K12R5
[5] = system: Pseudomonas aeruginosa GN 315; test: MIC, standard serial dilution method; assay type: cell-based; details: GN315; Pseudomonas aeruginosa GN 315; resistance mechanism AAC(6'); Mueller-Hinton agar, 37° C; read-out: MIC
Escherichia coli JR225 = test: microbe, parasite or virus in culture; assay type: cell-based; details: resistance mechanism AAC(3), Mueller-Hinton agar, 37° C
Mycobacterium 607 = test: MIC, standard serial dilution method; assay type: cell-based; details: Mueller-Hinton agar, 37° C
[6] = system: Escherichia coli K-12 ML 1629; test: microbe, parasite or virus in culture; assay type: cell-based; details: K12ML1629; Escherichia coli K-12 ML 1629; resistance mechanism APH(3')-I; Mueller-Hinton agar, 37° C; read-out: MIC
Bacillus subtilis PCI219 = test: MIC, standard serial dilution method; assay type: cell-based; details: Mueller-Hinton agar, 37° C
[7] = system: Corynebacterium bovis 1810; test: MIC, standard serial dilution method; assay type: cell-based; details: Mueller-Hinton agar, 37° C
[8] = system: Escherichia coli JR66/W677; test: microbe, parasite or virus in culture; assay type: cell-based; details: resistance mechanism APH(3')-II, ANT(2"), Mueller-Hinton agar, 37° C
[9] = system: Pseudomonas aeruginosa A3; test: MIC, standard serial dilution method; assay type: cell-based; details: Mueller-Hinton agar, 37° C
Escherichia coli K-12 = test: MIC, standard serial dilution method; assay type: cell-based; details: K12; Escherichia coli K-12; Mueller-Hinton agar, 37° C; read-out: MIC
Proteus rettgeri GN 311 = test: MIC, standard serial dilution method; assay type: cell-based; details: Providencia rettgeri, GN311; Proteus rettgeri GN 311; Mueller-Hinton agar, 37° C; read-out: MIC
Serratia marcescens = test: MIC, standard serial dilution method; assay type: cell-based; details: Mueller-Hinton agar, 37° C
Providencia sp. Pv 16 = test: MIC, standard serial dilution method; assay type: cell-based; details: SP.PV16, resistance mechanism AAC(2'), Mueller-Hinton agar, 37° C
[10] = Escherichia coli K-12 R5, resistance mechanism AAC(6'), Mueller-Hinton agar, 37° C

NC[C@H]1O[C@H](O[C@H]2[C@H](F)[C@@H](O[C@H]3O[C@H](CO)[C@@H](O)[C@H](N)[C@H]3O)[C@H](N)C[C@@H]2N)[C@H](N)[C@@H](O)[C@@H]1O [5-deoxy-5-fluorokanamycin B, reference compound] showed an LD50 (in vivo) of ~135 mg/kg.

Compound CN[C@@H]1[C@@H](O)[C@@H](O[C@H]2[C@H](NC(=O)[C@@H](O)CCN)C[C@H](N)[C@@H](O[C@H]3O[C@H]([C@@H](C)NC)CC[C@H]3N)C2(F)F)OC[C@]1(C)O [5FF-Genta-C1-AHB, 1-N-[(S)-4-amino-2-hydroxybutyryl]-5-deoxy-5,5-difluorogentamicin C1] has an MIC [1] of 0.39 µg/mL (≈ 0.651 µM), an MIC [2] of 1.56 µg/mL (≈ 2.61 µM) and an MIC [3] of 1.56 µg/mL (≈ 2.61 µM). The MIC [4] was 25 µg/mL (≈ 41.8 µM), the MIC (Escherichia coli K-12 R5; Escherichia coli) was 0.78 µg/mL (≈ 1.3 µM) and the MIC [5] was 100 µg/mL (≈ 167 µM). For the same compound, the MIC (Escherichia coli JR225) was < 0.2 µg/mL, the MIC (Mycobacterium 607) was 3.12 µg/mL (≈ 5.21 µM) and the MIC [6] was 1.56 µg/mL (≈ 2.61 µM). For the same compound, the MIC (Bacillus subtilis PCI219) was 1.56 µg/mL (≈ 2.61 µM), the MIC [7] was 0.78 µg/mL (≈ 1.3 µM) and the MIC [8] was 3.12 µg/mL (≈ 5.21 µM). The MIC [9] was 6.25 µg/mL (≈ 10.4 µM), the MIC (Escherichia coli K-12) was < 0.2 µg/mL and the MIC (Proteus rettgeri GN 311) was 1.56 µg/mL (≈ 2.61 µM). It also gave an MIC (Serratia marcescens) of 3.12 µg/mL (≈ 5.21 µM) and an MIC (Providencia sp. Pv 16) of 6.25 µg/mL (≈ 10.4 µM).

For CN[C@@H]1[C@@H](O)[C@@H](O[C@H]2[C@H](NC(=O)[C@@H](O)CCN)C[C@H](N)[C@@H](O[C@H]3O[C@H]([C@@H](C)N)CC[C@H]3N)C2(F)F)OC[C@]1(C)O [5FF-Genta-C2-AHB, 1-N-[(S)-4-amino-2-hydroxybutyryl]-5-deoxy-5,5-difluorogentamicin C2], the MIC [1] was 0.2 µg/mL (≈ 0.342 µM), the MIC [2] was 0.78 µg/mL (≈ 1.33 µM) and the MIC [3] was 1.56 µg/mL (≈ 2.67 µM). For the same compound, the MIC [4] was 12.5 µg/mL (≈ 21.4 µM), the MIC (Escherichia coli K-12 R5; [10]) was 3.12 µg/mL (≈ 5.34 µM) and the MIC [5] was 100 µg/mL (≈ 171 µM). For the same compound, the MIC (Escherichia coli JR225) was < 0.2 µg/mL, the MIC (Mycobacterium 607) was 3.12 µg/mL (≈ 5.34 µM) and the MIC [6] was 0.39 µg/mL (≈ 0.667 µM). The MIC (Bacillus subtilis PCI219) was 0.2 µg/mL (≈ 0.342 µM), the MIC [7] was 0.2 µg/mL (≈ 0.342 µM) and the MIC [8] was 0.78 µg/mL (≈ 1.33 µM). For the same compound, the MIC [9] was 3.12 µg/mL (≈ 5.34 µM), the MIC (Escherichia coli K-12) was < 0.2 µg/mL and the MIC (Proteus rettgeri GN 311) was 0.78 µg/mL (≈ 1.33 µM). It also gave an MIC (Serratia marcescens) of 3.12 µg/mL (≈ 5.34 µM) and an MIC (Providencia sp. Pv 16) of 6.25 µg/mL (≈ 10.7 µM).

In the case of NCC[C@H](O)C(=O)N[C@@H]1C[C@H](N)[C@@H](O[C@H]2O[C@H](CN)[C@@H](O)[C@H](O)[C@H]2O)[C@H](O)[C@H]1O[C@H]1O[C@H](CO)[C@@H](O)[C@H](N)[C@H]1O [Amikacin, amikacin, reference compound], the MIC [1] was 1.56 µg/mL (≈ 2.66 µM), the MIC [3] was 3.12 µg/mL (≈ 5.33 µM) and the MIC [4] was > 100 µg/mL. The MIC (Escherichia coli K-12 R5; [10]) was 100 µg/mL (≈ 171 µM), the MIC [5] was 50 µg/mL (≈ 85.4 µM) and the MIC [6] was 1.56 µg/mL (≈ 2.66 µM). The MIC (Bacillus subtilis PCI219) was 0.39 µg/mL (≈ 0.666 µM), the MIC [7] was 1.56 µg/mL (≈ 2.66 µM) and the MIC (Proteus rettgeri GN 311) was 1.56 µg/mL (≈ 2.66 µM). The LD50 (in vivo; pH 7) was > 300 mg/kg, the MIC (Serratia marcescens) was 3.12 µg/mL (≈ 5.33 µM) and the MIC (Providencia sp. Pv 16) was 1.56 µg/mL (≈ 2.66 µM).

NC[C@@H]1CC[C@@H](N)[C@@H](O[C@H]2[C@H](F)[C@@H](O[C@H]3O[C@H](CO)[C@@H](O)[C@H](N)[C@H]3O)[C@H](N)C[C@@H]2N)O1 [Compound 5F-DKB, 5,3',4'-trideoxy-5-fluorokanamycin B, reference compound] showed an MIC [3] of 6.25 µg/mL (≈ 13.8 µM), an MIC [4] of 3.12 µg/mL (≈ 6.88 µM) and an MIC (Mycobacterium 607) of 6.25 µg/mL (≈ 13.8 µM). The MIC [6] was 3.12 µg/mL (≈ 6.88 µM), the MIC [7] was 6.25 µg/mL (≈ 13.8 µM) and the MIC (Escherichia coli K-12) was 3.12 µg/mL (≈ 6.88 µM). It also gave an LD50 (in vivo; pH 7) of ~135 mg/kg.

Compound NCC[C@H](O)C(=O)N[C@@H]1C[C@H](N)[C@@H](O[C@H]2O[C@H](CN)CC[C@H]2N)[C@H](F)[C@H]1O[C@H]1O[C@H](CO)[C@@H](O)[C@H](N)[C@H]1O [Compound 5F-DKB-AHB, 1-N-[4-amino-2-(S)-hydroxybutyryl]-5,3',4'-trideoxy-5-fluorokanamycin B, reference compound] has an MIC [1] of 0.39 µg/mL (≈ 0.703 µM), an MIC [3] of 0.78 µg/mL (≈ 1.41 µM) and an MIC [4] of 1.56 µg/mL (≈ 2.81 µM). For the same compound, the MIC (Escherichia coli K-12 R5; [10]) was 12.5 µg/mL (≈ 22.5 µM), the MIC (Escherichia coli JR225) was < 0.2 µg/mL and the MIC [6] was 0.39 µg/mL (≈ 0.703 µM). For the same compound, the MIC (Bacillus subtilis PCI219) was < 0.2 µg/mL, the MIC (Escherichia coli K-12) was < 0.2 µg/mL and the MIC (Serratia marcescens) was 3.12 µg/mL (≈ 5.63 µM). For the same compound, the MIC (Providencia sp. Pv 16) was 0.39 µg/mL (≈ 0.703 µM).

In the case of NC[C@H]1O[C@H](O[C@H]2[C@H](F)[C@@H](O[C@H]3O[C@H](CO)[C@@H](O)[C@H](N)[C@H]3O)[C@H](N)C[C@@H]2N)[C@H](N)C[C@@H]1O [Compound 5F-TOB, 5,3'-dideoxy-5-fluorokanamycin B, reference compound], the MIC [3] was 3.12 µg/mL (≈ 6.65 µM), the MIC (Bacillus subtilis PCI219) was < 0.2 µg/mL and the LD50 (in vivo; pH 7) was ~180 mg/kg. It also gave an MIC (Providencia sp. Pv 16) of 3.12 µg/mL (≈ 6.65 µM).
